Measured values as given in US10968222B2, “2-azabicyclo hexane JAK inhibitor compound” (THERAVANCE BIOPHARMA R&D IP, LLC, priority 2018, dated 2021).

Experiments:
GSK3B = molecular target: T1, GSK3B (Homo sapiens, UniProt P49841); assay: Kinome screen, GSK3B; assay type: binding; conditions: screened at 1 μM
T1 construct: made in house; host or cells: E. coli BL21-derived host (T7 phage) or HEK-293 cells
Method: (§1) Compounds 1 and C-1 were screened against other kinases to evaluate their selectivity profile.
(§2) Kinase-tagged T7 phage strains were grown in parallel in 24-well blocks in an E. coli host derived from the BL21 strain. E. coli were grown to log-phase and infected with T7 phage from a frozen stock (multiplicity of infection=0.4) and incubated with shaking at 32° C. until lysis (90-150 minutes). The lysates were centrifuged (6,000×g) and filtered (0.2 μm) to remove cell debris. The remaining kinases were produced in HEK-293 cells and subsequently tagged with DNA for qPCR detection.
(§3) Streptavidin-coated magnetic beads were treated with biotinylated small molecule ligands for 30 minutes at room temperature to generate affinity resins for kinase assays. The liganded beads were blocked with excess biotin and washed with blocking buffer (SeaBlock (Pierce), 1% BSA, 0.05% Tween 20, 1 mM DTT) to remove unbound ligand and to reduce non-specific phage binding. Binding reactions were assembled by combining kinases, liganded affinity beads, and test compounds in 1× binding buffer (20% SeaBlock, 0.17×PBS, 0.05% Tween 20, 6 mM DTT). Test compounds were prepared as 40× stocks in 100% DMSO and directly diluted into the assay. All reactions were performed in polypropylene 384-well plates in a final volume of 0.04 ml. […] The kinase concentration in the eluates was measured by qPCR. […]

PAK4 = molecular target: T2, PAK4 (Homo sapiens, UniProt O96013); assay: Kinome screen, PAK4; assay type: binding; conditions: screened at 1 μM
T2 construct: made in house; host or cells: E. coli BL21-derived host (T7 phage) or HEK-293 cells
T2 sequence (O96013 whole entry): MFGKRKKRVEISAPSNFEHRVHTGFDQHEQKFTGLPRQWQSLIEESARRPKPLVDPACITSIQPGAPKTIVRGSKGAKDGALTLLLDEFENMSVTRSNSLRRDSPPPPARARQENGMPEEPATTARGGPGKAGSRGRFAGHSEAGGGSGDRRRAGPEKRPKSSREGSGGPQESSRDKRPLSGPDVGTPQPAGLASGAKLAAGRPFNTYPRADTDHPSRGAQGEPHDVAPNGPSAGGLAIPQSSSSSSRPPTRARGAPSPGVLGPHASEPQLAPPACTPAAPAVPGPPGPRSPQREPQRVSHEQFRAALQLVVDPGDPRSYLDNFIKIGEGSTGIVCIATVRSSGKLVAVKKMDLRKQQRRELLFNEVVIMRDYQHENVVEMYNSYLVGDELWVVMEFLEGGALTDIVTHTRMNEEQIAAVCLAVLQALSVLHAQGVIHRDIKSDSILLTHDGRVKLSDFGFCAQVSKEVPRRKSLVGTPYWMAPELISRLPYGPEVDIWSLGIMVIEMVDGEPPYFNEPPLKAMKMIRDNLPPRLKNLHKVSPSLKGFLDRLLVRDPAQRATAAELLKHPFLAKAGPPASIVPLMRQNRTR
Method: as §1, §2, §3

VEGFR2 = molecular target: T3, VEGFR2 (Homo sapiens, UniProt P35968); assay: Kinome screen, VEGFR2; assay type: binding; conditions: screened at 1 μM
T3 construct: made in house; host or cells: E. coli BL21-derived host (T7 phage) or HEK-293 cells
Method: as §1, §2, §3

AURKA = molecular target: T4, AURKA (Homo sapiens, UniProt O14965); assay: Kinome screen, AURKA; assay type: binding; conditions: screened at 1 μM
T4 construct: made in house; host or cells: E. coli BL21-derived host (T7 phage) or HEK-293 cells
Method: as §1, §2, §3

[1] = system: BEAS-2B human lung epithelial cells; assay: CellTiter-Glo cell viability/cytotoxicity assay; assay type: cell-based; conditions: BEAS-2B cells; 48 h; 15% inhibition threshold
Method: A CellTiter-Glo luminescent cell viability/cytotoxicity assay was carried out in BEAS-2B human lung epithelial cells (ATCC) under the normal growth condition.
Cells were grown at 37° C. in a 5% CO2 humidified incubator in 50% DMEM/50% F-12 medium (Life Technologies) supplemented with 10% FBS (Hyclone), 100 U/mL penicillin, 100 μg/mL streptomycin (Life Technologies), and 2 mM GlutaMAX (Life Technologies). On day 1 of the assay, cells were seeded at a 500 cells/well density in white 384-well tissue culture plates (Corning) with 25 μL medium, and were allowed to adhere overnight in the incubator. On day 2 of the assay, 5 μL of medium containing dose-responses of test compounds was added, and incubated at 37° C. for 48 h. 30 μL of CellTiter-Glo detection solution (Promega) was subsequently added, mixed on an orbital shaker for 5 min, and incubated for additional 10 min before being read on the EnVision reader. Luminescence signals were recorded and percent DMSO control values were calculated.
For dose-response analysis, percent DMSO control data were plotted vs. compound concentrations to derive dose-response curves by line connecting each data point. The concentration at which each curve crosses the 15% inhibition threshold is defined as CC15.

ALK = molecular target: T5, ALK (Homo sapiens, UniProt Q9UM73); assay: Kinome screen, ALK; assay type: binding; conditions: screened at 1 μM
T5 construct: made in house; host or cells: E. coli BL21-derived host (T7 phage) or HEK-293 cells
T5 sequence (Q9UM73 19-1620): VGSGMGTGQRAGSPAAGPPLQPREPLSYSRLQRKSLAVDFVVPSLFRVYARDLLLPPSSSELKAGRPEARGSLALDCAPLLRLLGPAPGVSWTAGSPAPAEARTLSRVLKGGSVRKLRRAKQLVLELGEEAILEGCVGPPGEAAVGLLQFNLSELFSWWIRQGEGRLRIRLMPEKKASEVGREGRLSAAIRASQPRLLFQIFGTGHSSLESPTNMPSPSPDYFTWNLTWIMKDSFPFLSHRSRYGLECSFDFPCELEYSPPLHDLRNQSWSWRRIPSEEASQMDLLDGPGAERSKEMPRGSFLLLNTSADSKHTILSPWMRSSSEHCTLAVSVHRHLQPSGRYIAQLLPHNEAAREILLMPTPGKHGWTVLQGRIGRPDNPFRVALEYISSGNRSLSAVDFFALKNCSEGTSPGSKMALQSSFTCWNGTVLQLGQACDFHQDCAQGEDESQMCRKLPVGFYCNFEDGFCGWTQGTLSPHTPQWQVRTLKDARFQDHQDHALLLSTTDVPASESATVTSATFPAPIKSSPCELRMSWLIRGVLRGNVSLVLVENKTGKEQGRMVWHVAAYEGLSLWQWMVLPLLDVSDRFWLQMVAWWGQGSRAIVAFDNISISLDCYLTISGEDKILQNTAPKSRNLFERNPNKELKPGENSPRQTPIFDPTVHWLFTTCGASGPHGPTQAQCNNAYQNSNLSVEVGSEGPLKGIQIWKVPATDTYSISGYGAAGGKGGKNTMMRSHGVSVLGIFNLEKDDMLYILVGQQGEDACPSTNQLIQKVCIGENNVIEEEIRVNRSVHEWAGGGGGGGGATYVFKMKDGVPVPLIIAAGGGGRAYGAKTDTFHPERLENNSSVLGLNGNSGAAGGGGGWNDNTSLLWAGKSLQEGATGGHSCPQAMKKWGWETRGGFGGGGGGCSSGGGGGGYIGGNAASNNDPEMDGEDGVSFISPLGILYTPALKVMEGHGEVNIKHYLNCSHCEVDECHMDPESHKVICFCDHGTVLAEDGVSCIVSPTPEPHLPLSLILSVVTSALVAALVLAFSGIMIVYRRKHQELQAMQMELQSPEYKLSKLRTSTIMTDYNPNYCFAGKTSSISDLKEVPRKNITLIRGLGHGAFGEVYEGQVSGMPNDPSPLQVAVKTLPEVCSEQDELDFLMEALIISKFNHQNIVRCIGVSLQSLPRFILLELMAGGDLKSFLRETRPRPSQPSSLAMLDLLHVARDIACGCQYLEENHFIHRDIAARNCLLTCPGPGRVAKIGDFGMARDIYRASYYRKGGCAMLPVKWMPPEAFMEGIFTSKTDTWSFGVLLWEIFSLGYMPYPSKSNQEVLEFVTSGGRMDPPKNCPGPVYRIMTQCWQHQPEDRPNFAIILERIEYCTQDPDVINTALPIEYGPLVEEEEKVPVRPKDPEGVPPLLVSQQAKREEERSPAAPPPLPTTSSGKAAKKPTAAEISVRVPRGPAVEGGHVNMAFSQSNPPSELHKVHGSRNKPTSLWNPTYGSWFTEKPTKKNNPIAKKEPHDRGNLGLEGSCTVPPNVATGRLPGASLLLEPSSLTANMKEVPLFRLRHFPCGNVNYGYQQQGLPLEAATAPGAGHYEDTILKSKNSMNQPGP
Method: as §1, §2, §3

EPHB6 = molecular target: T6, EPHB6 (Homo sapiens, UniProt O15197); assay: Kinome screen, EPHB6; assay type: binding; conditions: screened at 1 μM
T6 construct: made in house; host or cells: E. coli BL21-derived host (T7 phage) or HEK-293 cells
Method: as §1, §2, §3

SLK = molecular target: T7, SLK (Homo sapiens, UniProt Q9H2G2); assay: Kinome screen, SLK; assay type: binding; conditions: screened at 1 μM
T7 construct: made in house; host or cells: E. coli BL21-derived host (T7 phage) or HEK-293 cells
T7 sequence (Q9H2G2 whole entry): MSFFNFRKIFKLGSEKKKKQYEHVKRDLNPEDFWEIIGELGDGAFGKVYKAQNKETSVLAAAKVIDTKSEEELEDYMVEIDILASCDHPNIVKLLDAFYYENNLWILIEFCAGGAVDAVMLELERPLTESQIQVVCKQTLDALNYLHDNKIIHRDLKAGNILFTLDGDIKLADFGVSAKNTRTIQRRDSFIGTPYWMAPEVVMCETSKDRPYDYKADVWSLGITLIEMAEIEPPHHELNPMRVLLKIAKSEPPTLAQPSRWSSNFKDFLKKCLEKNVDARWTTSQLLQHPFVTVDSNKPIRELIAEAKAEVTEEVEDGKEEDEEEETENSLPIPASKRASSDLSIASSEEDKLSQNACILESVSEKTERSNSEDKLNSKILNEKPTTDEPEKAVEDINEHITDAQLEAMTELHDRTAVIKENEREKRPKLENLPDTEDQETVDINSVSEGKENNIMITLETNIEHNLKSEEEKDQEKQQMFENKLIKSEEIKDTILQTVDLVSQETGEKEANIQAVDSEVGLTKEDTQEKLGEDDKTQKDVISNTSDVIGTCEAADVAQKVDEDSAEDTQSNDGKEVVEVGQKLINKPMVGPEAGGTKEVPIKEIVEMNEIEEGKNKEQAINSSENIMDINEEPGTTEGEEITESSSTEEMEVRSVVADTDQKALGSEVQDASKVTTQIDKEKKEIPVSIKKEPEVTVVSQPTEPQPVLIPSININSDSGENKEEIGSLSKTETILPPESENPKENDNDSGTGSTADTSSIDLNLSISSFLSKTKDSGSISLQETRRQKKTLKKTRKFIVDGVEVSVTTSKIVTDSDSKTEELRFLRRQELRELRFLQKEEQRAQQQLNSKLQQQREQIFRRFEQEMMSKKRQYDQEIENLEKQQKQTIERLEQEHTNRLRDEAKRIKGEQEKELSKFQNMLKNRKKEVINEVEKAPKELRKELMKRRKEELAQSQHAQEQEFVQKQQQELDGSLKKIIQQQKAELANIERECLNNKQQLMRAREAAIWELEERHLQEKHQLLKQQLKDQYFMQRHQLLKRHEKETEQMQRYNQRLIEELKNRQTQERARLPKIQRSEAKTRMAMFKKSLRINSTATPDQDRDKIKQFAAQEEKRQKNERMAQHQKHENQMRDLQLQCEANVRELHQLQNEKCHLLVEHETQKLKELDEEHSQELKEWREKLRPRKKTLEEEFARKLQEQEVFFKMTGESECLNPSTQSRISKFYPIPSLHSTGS
Method: as §1, §2, §3

SYK = molecular target: T8, SYK (Homo sapiens, UniProt P43405); assay: Kinome screen, SYK; assay type: binding; conditions: screened at 1 μM
T8 construct: made in house; host or cells: E. coli BL21-derived host (T7 phage) or HEK-293 cells
Method: as §1, §2, §3

CDK7 = molecular target: T9, CDK7 (Homo sapiens, UniProt P50613); assay: Kinome screen, CDK7; assay type: binding; conditions: screened at 1 μM
T9 construct: made in house; host or cells: E. coli BL21-derived host (T7 phage) or HEK-293 cells
Method: as §1, §2, §3

CDK2 = molecular target: T10, CDK2 (Homo sapiens, UniProt P24941); assay: Kinome screen, CDK2; assay type: binding; conditions: screened at 1 μM
T10 construct: made in house; host or cells: E. coli BL21-derived host (T7 phage) or HEK-293 cells
Method: as §1, §2, §3

CSF1R = molecular target: T11, CSF1R (Homo sapiens, UniProt P07333); assay: Kinome screen, CSF1R; assay type: binding; conditions: screened at 1 μM
T11 construct: made in house; host or cells: E. coli BL21-derived host (T7 phage) or HEK-293 cells
Method: as §1, §2, §3

SRC = molecular target: T12, SRC (Homo sapiens, UniProt P12931); assay: Kinome screen, SRC; assay type: binding; conditions: screened at 1 μM
T12 construct: made in house; host or cells: E. coli BL21-derived host (T7 phage) or HEK-293 cells
Method: as §1, §2, §3

PLK4 = molecular target: T13, PLK4 (Homo sapiens, UniProt O00444); assay: Kinome screen, PLK4; assay type: binding; conditions: screened at 1 μM
T13 construct: made in house; host or cells: E. coli BL21-derived host (T7 phage) or HEK-293 cells
T13 sequence (O00444 whole entry): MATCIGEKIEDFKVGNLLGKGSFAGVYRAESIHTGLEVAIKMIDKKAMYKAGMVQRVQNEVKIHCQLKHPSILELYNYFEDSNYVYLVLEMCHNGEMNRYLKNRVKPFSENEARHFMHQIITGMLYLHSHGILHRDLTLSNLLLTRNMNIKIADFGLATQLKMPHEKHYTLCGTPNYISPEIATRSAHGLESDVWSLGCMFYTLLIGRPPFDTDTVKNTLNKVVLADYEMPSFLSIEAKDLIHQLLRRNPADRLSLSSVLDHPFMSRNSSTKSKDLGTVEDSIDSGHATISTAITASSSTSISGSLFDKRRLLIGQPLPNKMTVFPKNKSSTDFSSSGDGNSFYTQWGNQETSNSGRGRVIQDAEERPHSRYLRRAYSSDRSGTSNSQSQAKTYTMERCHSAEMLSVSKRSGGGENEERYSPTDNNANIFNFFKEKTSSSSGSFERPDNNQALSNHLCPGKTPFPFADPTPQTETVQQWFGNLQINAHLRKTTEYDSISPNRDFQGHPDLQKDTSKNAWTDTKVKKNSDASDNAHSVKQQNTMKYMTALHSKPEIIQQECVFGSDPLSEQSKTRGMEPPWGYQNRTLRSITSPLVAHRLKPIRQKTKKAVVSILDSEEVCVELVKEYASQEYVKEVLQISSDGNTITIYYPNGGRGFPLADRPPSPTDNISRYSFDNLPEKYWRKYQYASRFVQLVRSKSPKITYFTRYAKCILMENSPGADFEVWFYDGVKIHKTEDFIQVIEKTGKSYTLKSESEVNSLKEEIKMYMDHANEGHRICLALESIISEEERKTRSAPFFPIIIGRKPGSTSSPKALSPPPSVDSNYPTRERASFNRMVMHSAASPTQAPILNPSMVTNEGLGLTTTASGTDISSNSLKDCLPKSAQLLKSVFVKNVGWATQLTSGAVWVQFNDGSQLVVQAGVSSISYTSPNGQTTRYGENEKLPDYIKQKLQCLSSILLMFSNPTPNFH
Method: as §1, §2, §3

CDK9 = molecular target: T14, CDK9 (Homo sapiens, UniProt P50750); assay: Kinome screen, CDK9; assay type: binding; conditions: screened at 1 μM
T14 construct: made in house; host or cells: E. coli BL21-derived host (T7 phage) or HEK-293 cells
T14 sequence (P50750 whole entry): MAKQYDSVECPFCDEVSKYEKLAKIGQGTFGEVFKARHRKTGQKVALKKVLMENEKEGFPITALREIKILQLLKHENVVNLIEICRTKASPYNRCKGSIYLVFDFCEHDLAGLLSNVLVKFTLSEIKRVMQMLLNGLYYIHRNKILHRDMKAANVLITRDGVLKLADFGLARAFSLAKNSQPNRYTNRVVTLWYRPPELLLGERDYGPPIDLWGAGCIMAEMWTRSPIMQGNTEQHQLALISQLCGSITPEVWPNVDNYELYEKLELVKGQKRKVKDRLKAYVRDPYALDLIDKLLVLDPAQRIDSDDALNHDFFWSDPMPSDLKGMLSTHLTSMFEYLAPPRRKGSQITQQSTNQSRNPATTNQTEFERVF
Method: as §1, §2, §3

CSNK1D = molecular target: T15, CSNK1D (Homo sapiens, UniProt P48730); assay: Kinome screen, CSNK1D; assay type: binding; conditions: screened at 1 μM
T15 construct: made in house; host or cells: E. coli BL21-derived host (T7 phage) or HEK-293 cells
Method: as §1, §2, §3

KIT = molecular target: T16, KIT (Homo sapiens, UniProt P10721); assay: Kinome screen, KIT; assay type: binding; conditions: screened at 1 μM
T16 construct: made in house; host or cells: E. coli BL21-derived host (T7 phage) or HEK-293 cells
Method: as §1, §2, §3

PKAC-ALPHA = molecular target: T17, PKAC-ALPHA (Homo sapiens, UniProt P17612); assay: Kinome screen, PKAC-ALPHA; assay type: binding; conditions: screened at 1 μM
T17 construct: made in house; host or cells: E. coli BL21-derived host (T7 phage) or HEK-293 cells
Method: as §1, §2, §3

inhibition at 1 µM (GSK3B): 52%
inhibition at 1 µM (PAK4): 89%
inhibition at 1 µM (VEGFR2): 59%
inhibition at 1 µM (AURKA): 54%
inhibition at 1 µM (ALK): 87%
inhibition at 1 µM (EPHB6): 96.5%
inhibition at 1 µM (SLK): 99.9%
inhibition at 1 µM (SYK): 82%
inhibition at 1 µM (CDK7): 98.8%
inhibition at 1 µM (CDK2): 50%
inhibition at 1 µM (CSF1R): 100%
inhibition at 1 µM (SRC): 98.9%
inhibition at 1 µM (PLK4): 40%
inhibition at 1 µM (CDK9): 89%
inhibition at 1 µM (CSNK1D): 66%
inhibition at 1 µM (KIT): 98.5%
inhibition at 1 µM (PKAC-ALPHA): 55%
SMILES: CCc1cc(O)c(F)cc1-c1ccc2c(-c3nc4c([nH]3)CCN(C(=O)[C@]35C[C@H]3CCN5)C4)n[nH]c2c1 [Compound C-1, ((1S,5R)-2-azabicyclo[3.1.0]hexan-1-yl)(2-(6-(2-ethyl-5-fluoro-4-hydroxyphenyl)-1H-indazol-3-yl)-1,4,6,7-tetrahydro-5H-imidazo[4,5-c]pyridin-5-yl)methanone, reference compound]
CC15 [1]: 1580 nM
pCC15 [1]: 5.8
